We go through 32 compounds from US9694016B2 (Novartis AG, priority 2013, dated 2017).

Each structure is given as a SMILES string.

Sequence of b-Raf (V600E) (P15056 whole entry V600E): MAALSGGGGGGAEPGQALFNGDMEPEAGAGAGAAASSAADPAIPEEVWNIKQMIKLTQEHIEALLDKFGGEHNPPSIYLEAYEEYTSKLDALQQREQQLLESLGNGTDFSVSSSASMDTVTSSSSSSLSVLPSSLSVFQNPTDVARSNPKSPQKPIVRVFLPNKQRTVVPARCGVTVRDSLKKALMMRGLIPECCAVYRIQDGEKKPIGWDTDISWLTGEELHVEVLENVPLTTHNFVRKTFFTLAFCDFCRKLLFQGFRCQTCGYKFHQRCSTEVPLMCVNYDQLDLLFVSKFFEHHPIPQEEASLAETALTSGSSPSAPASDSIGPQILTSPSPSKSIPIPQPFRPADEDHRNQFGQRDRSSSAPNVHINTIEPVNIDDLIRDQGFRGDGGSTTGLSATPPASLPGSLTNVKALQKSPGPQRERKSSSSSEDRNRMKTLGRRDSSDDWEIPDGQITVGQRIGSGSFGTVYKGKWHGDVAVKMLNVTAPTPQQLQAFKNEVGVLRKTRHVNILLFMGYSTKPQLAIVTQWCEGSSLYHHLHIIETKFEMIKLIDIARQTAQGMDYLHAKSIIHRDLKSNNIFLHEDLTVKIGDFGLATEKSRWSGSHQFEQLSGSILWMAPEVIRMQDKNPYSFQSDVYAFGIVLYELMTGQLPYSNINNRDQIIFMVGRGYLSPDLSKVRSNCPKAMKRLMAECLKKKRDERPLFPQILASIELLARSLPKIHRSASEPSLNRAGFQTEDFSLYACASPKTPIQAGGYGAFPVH

One experiment has as its target b-Raf (V600E) (Homo sapiens (Human), UniProt P15056, V600E). The note with it: read-out: b-Raf IC-50; AlphaScreen, 60 min pre-incubation, 3 hours reaction.
Source text: Sf9 cells co-expressing both proteins were lysed and subjected to immobilized nickel chromatography and eluted with Imidazole. A second column (StrepII binding column) was used and eluted with desthiobiotin. Protein Tags were removed using Prescission enzyme and the protein was further purified using a flowthrough step to remove tags.
Full length MEK1 with an inactivating K97R ATP binding site mutation is utilized as a RAF substrate. The MEK1 cDNA was subcloned with an N-terminal (his)6 tag into a vector for E. Coli expression. The MEK1 substrate was purified from E. Coli lysate by nickel affinity chromatography followed by anion exchange. The final MEK1 preparation was biotinylated (Pierce EZ-Link Sulfo-NHS-LC-Biotin) and concentrated.
Assay buffer: 50 mM Tris, pH 7.5, 15 mM MgCl2, 0.01% Bovine Serum Albumin (BSA), 1 mM dithiothreitol (DTT) Stop buffer: 60 mM ethylenediaminetetraacetic acid (EDTA), 0.01% Tween® 20
biotinylated Mek, kinase dead
384 well low volume assay plates (White Greiner® plates)
biotinylated Mek, Kinase dead approximately 10 nM
Pre-incubation time with compounds 60 minutes at room temperature
Reaction time 1 or 3 hours at room temperature
The plate was incubated for 60 minutes at room temperature.
The additions were carried out under dark conditions to protect the detection beads from light. A lid was placed on top of the plate and incubated for 1 hour at room temperature, then the luminescence was read on a PerkinElmer Envision instrument.
As for `COCCOc1nnc(-c2cc(NC(=O)c3ccnc(C(C)(C)F)c3)ccc2C)cc1N1CCOCC1` [Example 600, 2-(2-fluoropropan-2-yl)-N-(3-(6-(2-methoxyethoxy)-5-morpholinopyridazin-3-yl)-4-methylphenyl)isonicotinamide], the IC50 stood at 0.8 nM.

For the compound `Cc1ncc(NC(=O)c2ccnc(C(C)(C)F)c2)cc1-c1cc(N2CCOCC2)c(OC2CCOCC2)nn1` [Example 630, 2-(2-fluoropropan-2-yl)-N-(6-methyl-5-(5-morpholino-6-((tetrahydro-2H-pyran-4-yl)oxy)pyridazin-3-yl)pyridin-3-yl)isonicotinamide], the IC50 came to 2.9 nM.

Consider `CCn1cc(C(=O)Nc2ccc(C)c(-c3cc(N4CCOCC4)n(C)c(=O)c3)c2)cc(C(F)(F)F)c1=O` [Example 481, 1-ethyl-N-(4-methyl-3-(1-methyl-6-morpholino-2-oxo-1,2-dihydropyridin-4-yl)phenyl)-6-oxo-5-(trifluoromethyl)-1,6-dihydropyridine-3-carboxamide], for which the IC50 turned out to be 1.2 nM.

Regarding `Cc1ncc(NC(=O)c2cccc(C(F)(F)F)c2)cc1-c1cc(N2CCOCC2)nc(N[C@@H](C)CO)n1` [Example 745, (S)—N-(5-(2-((1-hydroxypropan-2-yl)amino)-6-morpholinopyrimidin-4-yl)-6-methylpyridin-3-yl)-3-(trifluoromethyl)benzamide], the IC50 worked out at 3.6 nM.

`COc1nnc(-c2cc(NC(=O)c3ccnc(C(C)(C)F)c3)ccc2C)cc1N1CCOCC1` [Example 552, 2-(2-fluoropropan-2-yl)-N-(3-(6-methoxy-5-morpholinopyridazin-3-yl)-4-methylphenyl)isonicotinamide]: the IC50 was found to be 3 nM.

With `Cc1ccc(NC(=O)c2ccnc(C(F)(F)F)c2)cc1-c1cc(N2CCOCC2)nc(N2CC(O)C2)n1` [Example 773, N-(3-(2-(3-hydroxyazetidin-1-yl)-6-morpholinopyrimidin-4-yl)-4-methylphenyl)-2-(trifluoromethyl)isonicotinamide], the IC50 was found to be 1.7 nM.

Turning to `Cc1ncc(NC(=O)c2ccnc(C(C)(F)F)c2)cc1-c1cc(N2CCOC[C@H]2C)n(C)c(=O)c1` [Example 524, (R)-2-(1,1-difluoroethyl)-N-(1′,2-dimethyl-6′-(3-methylmorpholino)-2′-oxo-1′,2′-dihydro-[3,4′-bipyridin]-5-yl)isonicotinamide], the IC50 turned out to be 41.2 nM.

For `CCNc1nc(-c2cc(NC(=O)c3ccnc(C(C)(C)C#N)c3)ccc2C)cc(N2CCOC[C@H]2C)n1` [Example 711, (R)-2-(2-cyanopropan-2-yl)-N-(3-(2-(ethylamino)-6-(3-methylmorpholino)pyrimidin-4-yl)-4-methylphenyl)isonicotinamide], the IC50 turned out to be 5.6 nM.

For the compound `COc1nnc(-c2cc(NC(=O)c3cnnc(C(F)(F)F)c3)ccc2C)cc1N1CCOCC1` [Example 551, N-(3-(6-methoxy-5-morpholinopyridazin-3-yl)-4-methylphenyl)-6-(trifluoromethyl)pyridazine-4-carboxamide], the IC50 amounted to 1.2 nM.

With `COc1nnc(-c2cc(NC(=O)c3ccnc(C(C)(C)C#N)c3)ccc2C)cc1N1CCOCC1` [Example 558, 2-(2-cyanopropan-2-yl)-N-(3-(6-methoxy-5-morpholinopyridazin-3-yl)-4-methylphenyl)isonicotinamide], the IC50 amounted to 2.1 nM.

Regarding `CCNc1nc(-c2cc(NC(=O)c3ccnc(C(C)C)c3)ccc2C)cc(N2CCOCC2)n1` [Example 700, N-(3-(2-(ethylamino)-6-morpholinopyrimidin-4-yl)-4-methylphenyl)-2-isopropylisonicotinamide], the IC50 was 1.2 nM.

In the case of `Cc1ccc(NC(=O)c2ccnc(C3(C#N)CC3)c2)cc1-c1cc(N2CCOCC2)n(C)c(=O)c1` [Example 480, 2-(1-cyanocyclopropyl)-N-(4-methyl-3-(1-methyl-6-morpholino-2-oxo-1,2-dihydropyridin-4-yl)phenyl)isonicotinamide], the IC50 is 0.6 nM.

Staying with this experiment, now noted: read-out: b-Raf IC-50; AlphaScreen, 60 min pre-incubation, reaction 3 hours at room temperature.
`Cc1ncc(NC(=O)c2cccc(C(F)(F)F)c2)cc1-c1ccnc(N2CCOCC2=O)c1` [Example 1135, N-(2-methyl-2′-(3-oxomorpholino)-[3,4′-bipyridin]-5-yl)-3-(trifluoromethyl)benzamide]: the IC50 was determined as 43 nM.

On to `Cc1ccc(NC(=O)c2ccnc(C(C)(C)C#N)c2)cc1-c1nc2c(c(N3CCOCC3)n1)CCNC2` [Example 865, 2-(2-cyanopropan-2-yl)-N-(4-methyl-3-(4-morpholino-5,6,7,8-tetrahydropyrido[3,4-d]pyrimidin-2-yl)phenyl)isonicotinamide], for which the IC50 turned out to be 3700 nM.

As to `Cc1ccc(NC(=O)c2cnnc(C(F)(F)F)c2)cc1-c1c(F)c(NCCO)nc(N2CCOCC2)c1F` [Example 1015, N-(3-(3,5-difluoro-2-((2-hydroxyethyl)amino)-6-morpholinopyridin-4-yl)-4-methylphenyl)-6-(trifluoromethyl)pyridazine-4-carboxamide], the IC50 is 29.5 nM.

`Cc1ccc(NC(=O)c2cc(C3CC3)on2)cc1-c1cc(N2CCOCC2)nc(N2CC(O)C2)c1` [Example 1095, 5-cyclopropyl-N-(3-(2-(3-hydroxyazetidin-1-yl)-6-morpholinopyridin-4-yl)-4-methylphenyl)isoxazole-3-carboxamide]: the IC50 came out at 1.11 nM.

In the case of `Cc1ncc(NC(=O)c2ccnc(C3CC3)c2)cc1-c1cc(N2CCOCC2)nc(N2CC(C)(O)C2)c1` [Example 1102, 2-cyclopropyl-N-(2′-(3-hydroxy-3-methylazetidin-1-yl)-2-methyl-6′-morpholino-[3,4′-bipyridin]-5-yl)isonicotinamide], the IC50 was found to be 4.45 nM.

With `CCn1cc(C(=O)Nc2ccc(C)c(-c3cc(N4CCOCC4)nc(N4CC(O)C4)c3)c2)cc(C(F)(F)F)c1=O` [Example 1061, 1-ethyl-N-(3-(2-(3-hydroxyazetidin-1-yl)-6-morpholinopyridin-4-yl)-4-methylphenyl)-6-oxo-5-(trifluoromethyl)-1,6-dihydropyridine-3-carboxamide], the IC50 came out at 3.05 nM.

In the case of `Cc1ccc(NC(=O)c2cnnc(C3CC3)c2)cc1-c1cc(OCCO)nc(N2CCOCC2)c1` [Example 1162, 6-cyclopropyl-N-(3-(2-(2-hydroxyethoxy)-6-morpholinopyridin-4-yl)-4-methylphenyl)pyridazine-4-carboxamide], the IC50 is 0.38 nM.

Turning to `Cc1ccc(NC(=O)c2ccnc(C(C)(C)C#N)c2)cc1-c1nc2c(c(N3CCOCC3)n1)S(=O)(=O)CC2` [Example 855, 2-(2-cyanopropan-2-yl)-N-(4-methyl-3-(4-morpholino-5,5-dioxido-6,7-dihydrothieno[3,2-d]pyrimidin-2-yl)phenyl)isonicotinamide], the IC50 was 2.3 nM.

For `Cc1ccc(NC(=O)c2ccnc(C(F)F)c2)cc1-c1cc(NCCO)nc(N2CCOCC2)c1` [Example 1053, 2-(difluoromethyl)-N-(3-(2-((2-hydroxyethyl)amino)-6-morpholinopyridin-4-yl)-4-methylphenyl)isonicotinamide], the IC50 was 0.86 nM.

In the case of `Cc1ncc(NC(=O)c2cc(C(C)(C)C#N)ccn2)cc1-c1cnc(OCCO)c(N2CCOCC2)c1` [Example 973, 4-(2-cyanopropan-2-yl)-N-(6′-(2-hydroxyethoxy)-2-methyl-5′-morpholino-[3,3′-bipyridin]-5-yl)picolinamide], the IC50 worked out at 15.8 nM.

Still in this experiment, the particulars now being: read-out: b-Raf IC-50; Table 2; AlphaScreen, 3 hours reaction.
For `Cc1ccc(NC(=O)c2ccnc(C(C)(C)O)c2)cc1-c1cnc(OC2CCOCC2)c(N2CCOCC2)c1` [Example 277, 2-(2-hydroxypropan-2-yl)-N-(4-methyl-3-(5-morpholino-6-((tetrahydro-2H-pyran-4-yl)oxy)pyridin-3-yl)phenyl)isonicotinamide], the IC50 was 1 nM.

Regarding `Cc1ccc(NC(=O)c2ccnc(S(C)(=O)=O)c2)cc1-c1cc(N2CCOCC2)c(=O)n(C)c1` [Example 184, N-(4-methyl-3-(1-methyl-5-morpholino-6-oxo-1,6-dihydropyridin-3-yl)phenyl)-2-(methylsulfonyl)isonicotinamide], the IC50 came to 3.1 nM.

Consider `Cc1ncc(NC(=O)c2cccc(C(F)(F)F)c2)cc1-c1cnc(OC2CCOCC2)c(N2CCOCC2)c1` [Example 131, N-(2-methyl-5′-morpholino-6′-((tetrahydro-2H-pyran-4-yl)oxy)-[3,3′-bipyridin]-5-yl)-3-(trifluoromethyl)benzamide], for which the IC50 was 1.8 nM.

Take `Cc1ccc(C(=O)Nc2cccnc2)cc1-c1cc(N2CCOCC2)c(=O)n(C)c1` [Example 433, 4-methyl-3-(1-methyl-5-morpholino-6-oxo-1,6-dihydropyridin-3-yl)-N-(pyridin-3-yl)benzamide]: the IC50 is 200 nM.

Consider `Cc1ccc(NC(=O)c2cccc(C(F)(F)F)c2)cc1-c1cc(N2CCOCC2)c(=O)n(C)n1` [Example 164, N-(4-methyl-3-(1-methyl-5-morpholino-6-oxo-1,6-dihydropyridazin-3-yl)phenyl)-3-(trifluoromethyl)benzamide], for which the IC50 came to 1.7 nM.

For `Cc1ncc(NC(=O)c2ccnc(C(F)(F)F)c2)cc1-c1cc(N2CCOCC2)c(=O)n(C)c1` [Example 390, N-(1′,2-dimethyl-5′-morpholino-6′-oxo-1′,6′-dihydro-[3,3′-bipyridin]-5-yl)-2-(trifluoromethyl)isonicotinamide], the IC50 is 5.4 nM.

As to `Cc1ncc(NC(=O)c2ccnc(C(C)C)c2)cc1-c1cc(N2CCOCC2)c(=O)n(C)c1` [Example 400, N-(1′,2-dimethyl-5′-morpholino-6′-oxo-1′,6′-dihydro-[3,3′-bipyridin]-5-yl)-2-isopropylisonicotinamide], the IC50 is 35.1 nM.

As for `Cc1ncc(NC(=O)c2ccnc(C(F)(F)F)c2)cc1-c1cncc(N2CCOCC2)c1` [Example 295], the IC50 was 3.6 nM.

As for `Cc1ncc(NC(=O)c2cccc(C(F)(F)F)c2)cc1-c1cnc(OC2COC2)c(N2CCOCC2)c1` [Example 315], the IC50 was determined as 0.8 nM.

Regarding `Cc1ncc(NC(=O)c2cnnc(C3CC3)c2)cc1-c1cnc(N(C)C)c(N2CCOCC2)c1` [Example 271, 6-cyclopropyl-N-(6′-(dimethylamino)-2-methyl-5′-morpholino-[3,3′-bipyridin]-5-yl)pyridazine-4-carboxamide], the IC50 was determined as 0.7 nM.
